The results in this text go back to patent US7011846B2, “Oral capsule formulation with increased physical stability” (Shire Laboratories, Inc., priority 2001, dated 2006).

The series in a line: Capsule shell integrity with NMP alone or NMP:stabilizing agent 1:1 (wt/wt), banded capsules, observed for leakage and shell cracking. In kind it is physicochemical. The conditions noted are these: NMP alone filled into size 0 hard gelatin capsule. Here is the method: NMP was filled into a size 0 hard gelatin capsule in order to determine the effect of NMP on the integrity of the shell.
To stabilize the capsule shell in presence of solution of NMP, various capsule stabilizing agents were studied for their stability inducing properties. Stabilizing agents were each incorporated into NMP separately. Formulations were prepared by mixing or dissolving each excipient in a vial containing NMP with a 1:1 ratio (wt/wt). The solutions were then encapsulated into size 0 hard gelatin capsules and banded to prevent leakage of the fill contents. Capsules were stored at ambient environment and observations were made at regular time intervals for leakage and capsule shell cracking.

With `CN1CCCC1=O` [#1, N-methyl-2-pyrrolidone], the “Effect of NMP on the integrity of the capsule shell” value is on record as “Within minutes, the capsule cracked causing the content to leak out”.
